Data reported in publication PMC9006293 (Blood Advances, 2022).

How the values were obtained:
[1] = system: DNIMV-specific T-cell hybridoma clones; experiment: Antigen-presentation assay, DNIMV-specific clones with fresh or fixed MGAR APCs; assay type: cell-based, mouse; conditions: fresh and paraformaldehyde-fixed MGAR APCs, 48 hours, ELISA
[2] = system: PRCLT-specific T-cell hybridoma clones; experiment: Antigen-presentation assay, PRCLT-specific clones with fresh or fixed MGAR APCs; assay type: cell-based, mouse; conditions: fresh and paraformaldehyde-fixed MGAR APCs, 48 hours, ELISA
HLA-DR molecules = conditions: FVIII-pulsed donor-derived human dendritic cells with diverse HLA-DRB1* molecules; cited from earlier work

DNIMVTFRNQASRPY
IL-2 response of DNIMV-specific clones [1]: activated

PRCLTRYYSSFVNME
IL-2 response of PRCLT-specific clones [2]: produced IL-2

FRNQASRPY
HLA-DR binding (HLA-DR molecules): promiscuous pan-DR HLA-DR binding peptide
